Data from the NIST ThermoML archive (doi:10.1016/j.fluid.2018.01.025).

Tests used:
[1] = 101.33 kPa, Liquid; for speed of sound: Frequency=2 MHz, Linear variable-path acoustic interferometer; for mass density: Vibrating tube method
[2] = xn = mol fraction of the nth substance listed; settings: 101 kPa, Liquid; for speed of sound: Frequency=2 MHz, Linear variable-path acoustic interferometer; for mass density: Vibrating tube method

Nc1ccccc1Cl [2-chlorobenzeneamine]
[1]
Settings	mass density [kg/m3]	speed of sound [m/s]
303.15 K	1202.38	1468
308.15 K	1197.56	–
313.15 K	1192.97	1437
318.15 K	1187.92	–
323.15 K	1183.26	–

Nc1ccccc1Cl [2-chlorobenzeneamine] + OCc1ccccc1
[2]
Settings	mass density, 303.15 K [kg/m3]	mass density, 308.15 K [kg/m3]	mass density, 313.15 K [kg/m3]	mass density, 318.15 K [kg/m3]	mass density, 323.15 K [kg/m3]	speed of sound, 303.15 K [m/s]	speed of sound, 313.15 K [m/s]
x2 = 0.1018	1188.36	1183.05	1178.05	1172.74	1167.93	1470.9	1440.8
x2 = 0.2031	1173.95	1168.26	1162.88	1157.37	1152.55	1474.4	1445.4
x2 = 0.3041	1158.94	1153	1147.35	1141.76	1136.87	1478	1450.2
x2 = 0.4047	1143.31	1137.27	1131.48	1125.89	1121.03	1482.1	1455
x2 = 0.5049	1126.98	1121.04	1115.21	1109.7	1104.91	1486.4	1459.9
x2 = 0.6047	1110.07	1104.31	1098.62	1093.31	1088.6	1490.9	1464.9
x2 = 0.7041	1092.58	1087.09	1081.73	1076.67	1072.12	1495.6	1470.1
x2 = 0.8031	1074.51	1069.49	1064.51	1059.84	1055.47	1500.6	1475.4
x2 = 0.9017	1056	1051.53	1047	1042.77	1038.7	1506	1481

Nc1cccc(Cl)c1 [3-chlorobenzenamine]
[1]
Settings	mass density [kg/m3]	speed of sound [m/s]
303.15 K	1205.75	1516
308.15 K	1201.14	–
313.15 K	1196.56	1484
318.15 K	1191.98	–
323.15 K	1187.41	–

Nc1cccc(Cl)c1 [3-chlorobenzenamine] + OCc1ccccc1
[2]
Settings	mass density, 303.15 K [kg/m3]	mass density, 308.15 K [kg/m3]	mass density, 313.15 K [kg/m3]	mass density, 318.15 K [kg/m3]	mass density, 323.15 K [kg/m3]	speed of sound, 303.15 K [m/s]	speed of sound, 313.15 K [m/s]
x2 = 0.1021	1189.69	1184.95	1180.24	1175.53	1170.9	1515.4	1484.3
x2 = 0.2037	1173.42	1168.65	1163.79	1159.09	1154.36	1514.9	1484.6
x2 = 0.3048	1156.94	1152.15	1147.27	1142.57	1137.82	1514.5	1484.9
x2 = 0.4055	1140.31	1135.57	1130.63	1125.95	1121.26	1514.1	1485.2
x2 = 0.5057	1123.48	1118.82	1113.94	1109.34	1104.71	1513.7	1485.5
x2 = 0.6054	1106.48	1101.95	1097.12	1092.63	1088.14	1513.3	1485.8
x2 = 0.7048	1089.33	1084.96	1080.3	1075.88	1071.54	1512.9	1486.1
x2 = 0.8036	1072.05	1067.86	1063.4	1059.13	1054.96	1512.6	1486.4
x2 = 0.902	1054.66	1050.79	1046.44	1042.37	1038.37	1512.3	1486.7

CN(C)c1ccccc1 [N,N-dimethylaniline]
[1]
Settings	mass density [kg/m3]	speed of sound [m/s]
303.15 K	948.18	1470
308.15 K	943.55	–
313.15 K	939.78	1432
318.15 K	935.3	–
323.15 K	931.45	–

CN(C)c1ccccc1 [N,N-dimethylaniline] + OCc1ccccc1
[2]
Settings	mass density, 303.15 K [kg/m3]	mass density, 308.15 K [kg/m3]	mass density, 313.15 K [kg/m3]	mass density, 318.15 K [kg/m3]	mass density, 323.15 K [kg/m3]	speed of sound, 303.15 K [m/s]	speed of sound, 313.15 K [m/s]
x2 = 0.12	957.18	952.61	948.78	944.35	940.48	1475.2	1438
x2 = 0.2348	966.14	961.64	957.75	953.35	949.47	1480.2	1443.8
x2 = 0.3447	974.99	970.58	966.64	962.3	958.43	1484.8	1449.3
x2 = 0.4501	983.81	979.48	975.5	971.22	967.35	1489.2	1454.8
x2 = 0.5511	992.59	988.35	984.36	980.15	976.28	1493.5	1460.3
x2 = 0.6481	1001.4	997.24	993.26	989.1	985.25	1497.6	1465.7
x2 = 0.7412	1010.24	1006.19	1002.16	998.09	994.24	1501.5	1471.1
x2 = 0.8308	1019.15	1015.2	1011.16	1007.16	1003.34	1505.1	1476.4
x2 = 0.917	1028.12	1024.28	1020.19	1016.31	1012.49	1508.5	1481.7

CNc1ccccc1 [N-methylaniline]
[1]
Settings	mass density [kg/m3]	speed of sound [m/s]
303.15 K	981.72	1549
308.15 K	976.04	–
313.15 K	970.89	1511
318.15 K	965.81	–
323.15 K	961.13	–

CNc1ccccc1 [N-methylaniline] + OCc1ccccc1
[2]
Settings	mass density, 303.15 K [kg/m3]	mass density, 308.15 K [kg/m3]	mass density, 313.15 K [kg/m3]	mass density, 318.15 K [kg/m3]	mass density, 323.15 K [kg/m3]	speed of sound, 303.15 K [m/s]	speed of sound, 313.15 K [m/s]
x2 = 0.1044	987.67	980.39	976.87	971.88	967.24	1545	1507.9
x2 = 0.2078	993.53	986.48	982.82	977.93	973.34	1540.9	1505.2
x2 = 0.3102	999.29	992.49	988.73	983.96	979.41	1537.1	1502.6
x2 = 0.4116	1004.92	998.45	994.6	989.97	985.5	1533.3	1500.1
x2 = 0.512	1010.45	1004.34	1000.43	995.91	991.54	1529.6	1497.7
x2 = 0.6115	1015.9	1010.22	1006.25	1001.87	997.59	1526.1	1495.3
x2 = 0.71	1021.26	1016.06	1012.02	1007.8	1003.64	1522.5	1493
x2 = 0.8076	1026.57	1021.85	1017.82	1013.73	1009.68	1518.8	1490.8
x2 = 0.9042	1031.88	1027.64	1023.58	1019.63	1015.72	1515.3	1488.7

Nc1ccccc1 [aniline]
[1]
Settings	mass density [kg/m3]	speed of sound [m/s]
303.15 K	1012.78	1615
308.15 K	1008.64	–
313.15 K	1004.49	1578
318.15 K	1000.36	–
323.15 K	996.43	–

Nc1ccccc1 [aniline] + OCc1ccccc1
[2]
Settings	mass density, 303.15 K [kg/m3]	mass density, 308.15 K [kg/m3]	mass density, 313.15 K [kg/m3]	mass density, 318.15 K [kg/m3]	mass density, 323.15 K [kg/m3]	speed of sound, 303.15 K [m/s]	speed of sound, 313.15 K [m/s]
x2 = 0.0895	1015.86	1011.46	1007.17	1003.04	999.07	1605.7	1570.1
x2 = 0.181	1018.68	1014.15	1009.79	1005.68	1001.68	1596.1	1561.9
x2 = 0.2748	1021.37	1016.76	1012.36	1008.28	1004.27	1586.4	1553.5
x2 = 0.3709	1023.88	1019.29	1014.9	1010.83	1006.82	1576.5	1544.9
x2 = 0.4693	1026.28	1021.76	1017.36	1013.33	1009.35	1566.6	1536
x2 = 0.5701	1028.61	1024.17	1019.82	1015.83	1011.87	1556.3	1526.9
x2 = 0.6735	1030.85	1026.55	1022.24	1018.31	1014.35	1545.9	1517.5
x2 = 0.7796	1033.02	1028.88	1024.64	1020.74	1016.84	1535.2	1507.8
x2 = 0.8884	1035.14	1031.18	1027.03	1023.15	1019.33	1523.9	1497.7

OCc1ccccc1 [benzenemethanol]
[1]
Settings	mass density [kg/m3]	speed of sound [m/s]
303.15 K	1037.18	1512
308.15 K	1033.45	–
313.15 K	1029.36	1487
318.15 K	1025.57	–
323.15 K	1021.78	–
